Consider nine compounds from ChEMBL document CHEMBL5360532, “Current scenario of quinolone hybrids with potential antibacterial activity against ESKAPE pathogens” (Eur J Med Chem, 2023).

In series [1] the test system is Staphylococcus aureus. As to the kind of experiment: Antibacterial activity against Staphylococcus aureus assessed as bacterial growth inhibition by agar cup diffusion method. The format is functional.
Series [2] concerns Staphylococcus aureus. As to the kind of experiment: Antibacterial activity against Staphylococcus aureus AUMC B-73 assessed as bacterial growth inhibition by agar cup diffusion method. The class given is functional.
Series [3] concerns Staphylococcus aureus. As to the kind of experiment: Potency index, ratio of ciprofloxacin MIC to test compound MIC for antibacterial activity against Staphylococcus aureus assessed as bacterial growth inhibition by broth microdilution assay. The class given is functional.
For series [4], the system named is Staphylococcus aureus. As to the kind of experiment: Antibacterial activity against Staphylococcus aureus assessed as bacterial growth inhibition by broth microdilution assay. The class given is functional.
For series [5], the system named is Citrobacter. The series is described as follows: Antibacterial activity against Citrobacter assessed as bacterial growth inhibition measured after 24 hrs by agar dilution assay. The class given is functional. (In general: In agar dilution, organisms are placed on agar that contains the substance at set levels.)
Series [6] relates to Enterobacter cloacae. The series is described as follows: Antibacterial activity against fosfomycin resistant Enterobacter cloacae assessed as bacterial growth inhibition measured after 24 hrs by agar dilution assay. The format is functional.
Series [7] deals with Enterococcus faecalis. The series is described as follows: Antibacterial activity against Enterococcus faecalis ATCC 29212 assessed as bacterial growth inhibition measured after 24 hrs by agar dilution assay. The class given is functional.
In series [8] the test system is Salmonella typhimurium. As to the kind of experiment: Antibacterial activity against Salmonella typhi assessed as bacterial growth inhibition measured after 24 hrs by agar dilution assay. The class given is functional, Salmonella enterica subsp. enterica serovar […]. Particulars: Salmonella enterica.
Series [9] deals with Enterococcus faecalis. The series is described as follows: Antibacterial activity against vancomycin resistant Enterococcus faecalis assessed as bacterial growth inhibition measured after 24 hrs by agar dilution assay. The format is functional.
Series [10] has as its system Escherichia coli. As to the kind of experiment: Antibacterial activity against ESBL-producing Escherichia coli assessed as bacterial growth inhibition measured after 24 hrs by agar dilution assay. The format is functional.
The test system of series [11] is Serratia marcescens. The series is described as follows: Antibacterial activity against Serratia marcescens assessed as bacterial growth inhibition measured after 24 hrs by agar dilution assay. The class given is functional.
Series [12] deals with Pseudomonas aeruginosa. The series is described as follows: Antibacterial activity against imipenem resistant Pseudomonas aeruginosa VIM-2 assessed as bacterial growth inhibition measured after 24 hrs by agar dilution assay. The format is functional.
Series [13] concerns Escherichia coli. The series is described as follows: Antibacterial activity against Escherichia coli ATCC 25922 assessed as bacterial growth inhibition measured after 24 hrs by agar dilution assay. The format is functional.
Series [14] deals with Staphylococcus aureus. The series is described as follows: Antibacterial activity against Staphylococcus aureus ATCC 25923 assessed as bacterial growth inhibition measured after 24 hrs by agar dilution assay. The class given is functional.
Series [15] concerns Staphylococcus aureus. As to the kind of experiment: Antibacterial activity against methicillin resistant Staphylococcus aureus clinical isolate 18-2 assessed as bacterial growth inhibition measured after 18 to 20 hrs by broth microdilution assay. Particulars: time 18-20 hrs. The format is functional. For orientation: Dilution methods test growth across graded concentrations, often in twofold steps.

In series [16] the test system is Staphylococcus aureus. As to the kind of experiment: Antibacterial activity against clinical isolate methicillin resistant Staphylococcus aureus ATCC 33591 assessed as bacterial growth inhibition measured after 18 to 20 hrs by broth microdilution assay. The format is functional. Particulars: time 18-20 hrs.
Series [17] concerns Staphylococcus aureus. The series is described as follows: Antibacterial activity against clinical isolate vancomycin intermediate resistant Staphylococcus aureus HIP 5827 assessed as bacterial growth inhibition measured after 18 to 20 hrs by broth microdilution assay. The format is functional. Particulars: time 18-20 hrs.
Series [18] relates to Staphylococcus aureus. As to the kind of experiment: Antibacterial activity against clinical isolate vancomycin intermediate resistant Staphylococcus aureus HIP 5836 assessed as bacterial growth inhibition measured after 18 to 20 hrs by broth microdilution assay. Particulars: time 18-20 hrs. The format is functional.
The nature of series [19]: Microsomal stability in mouse liver microsomes assessed as half life measured upto 60 mins in presence of NADPH by HPLC analysis. The class given is ADME, Microsome.
Series [20] deals with Staphylococcus aureus. The series is described as follows: Antibacterial activity against clinical isolate methicillin sensitive Staphylococcus aureus BAA 976 assessed as bacterial growth inhibition measured after 18 to 20 hrs by broth microdilution assay. The format is functional. Particulars: time 18-20 hrs.
The subject of series [21] is Staphylococcus aureus. The series is described as follows: Antibacterial activity against clinical isolate methicillin resistant Staphylococcus aureus ATCC 43300 assessed as bacterial growth inhibition measured after 18 to 20 hrs by broth microdilution assay. The format is functional. Particulars: time 18-20 hrs.
The subject of series [22] is Staphylococcus aureus. The series is described as follows: Antibacterial activity against methicillin sensitive Staphylococcus aureus clinical isolate 15 assessed as bacterial growth inhibition measured after 18 to 20 hrs by broth microdilution assay. Particulars: time 18-20 hrs. The class given is functional.
A short description of series [23]: Microsomal stability in mouse plasma assessed as half life measured upto 60 mins in presence of NADPH by HPLC analysis. The format is ADME, cell-free.
Series [24] deals with Staphylococcus aureus. The series is described as follows: Antibacterial activity against clinical isolate methicillin sensitive Staphylococcus aureus ATCC 29213 assessed as bacterial growth inhibition measured after 18 to 20 hrs by broth microdilution assay. The class given is functional. Particulars: time 18-20 hrs.
In series [25] the test system is Staphylococcus aureus. As to the kind of experiment: Antibacterial activity against clinical isolate methicillin sensitive Staphylococcus aureus BAA 1708 assessed as bacterial growth inhibition measured after 18 to 20 hrs by broth microdilution assay. The class given is functional. Particulars: time 18-20 hrs.
Series [26] relates to Staphylococcus aureus. The series is described as follows: Antibacterial activity against clinical isolate vancomycin intermediate resistant Staphylococcus aureus ATCC 700699 assessed as bacterial growth inhibition measured after 18 to 20 hrs by broth microdilution assay. Particulars: time 18-20 hrs. The class given is functional.
Series [27] concerns Staphylococcus aureus. As to the kind of experiment: Antibacterial activity against methicillin sensitive Staphylococcus aureus clinical isolate 18-3 assessed as bacterial growth inhibition measured after 18 to 20 hrs by broth microdilution assay. The format is functional. Particulars: time 18-20 hrs.
For series [28], the system named is Staphylococcus aureus. The series is described as follows: Potency index, ratio of ciprofloxacin MIC to test compound MIC for antimicrobial activity against Staphylococcus aureus assessed as bacterial growth inhibition measured after 24 hrs by agar cup diffusion assay. The class given is functional.
The test system of series [29] is Escherichia coli. As to the kind of experiment: Antibacterial activity against Escherichia coli assessed as bacterial growth inhibition measured after 24 hrs by agar cup diffusion assay. The format is functional.
Series [30] has as its system Staphylococcus aureus. The series is described as follows: Antibacterial activity against Staphylococcus aureus assessed as bacterial growth inhibition measured after 24 hrs by agar cup diffusion assay. The class given is functional.
Series [31] has as its system Pseudomonas aeruginosa. As to the kind of experiment: Antibacterial activity against Pseudomonas aeruginosa assessed as bacterial growth inhibition measured after 24 hrs by agar cup diffusion assay. The class given is functional.
In series [32] the test system is Escherichia coli. As to the kind of experiment: Antibacterial activity against Escherichia coli CFT 073 assessed as bacterial growth inhibition measured after 20 hrs by microdilution assay. The format is functional.
The subject of series [33] is Escherichia coli. The series is described as follows: Antibacterial activity against Escherichia coli UTI 189 assessed as bacterial growth inhibition measured after 20 hrs by microdilution assay. The format is functional.
Series [34] concerns Staphylococcus aureus. As to the kind of experiment: Antibacterial activity against Staphylococcus aureus ATCC 25923 assessed as bacterial growth inhibition measured after 16 hrs by broth microdilution assay. The class given is functional.
The test system of series [35] is Staphylococcus aureus. The series is described as follows: Potency index, ratio of ciprofloxacin MIC to test compound MIC for antimicrobial activity against Staphylococcus aureus ATCC 25923 assessed as bacterial growth inhibition measured after 24 hrs by agar dilution assay. The class given is functional.
The test system of series [36] is Escherichia coli. The series is described as follows: Antibacterial activity against Escherichia coli ATCC 25922 assessed as bacterial growth inhibition by broth microdilution assay. The format is functional.
For series [37], the system named is Staphylococcus aureus. As to the kind of experiment: Antibacterial activity against Staphylococcus aureus ATCC 29213 assessed as bacterial growth inhibition by broth microdilution assay. The format is functional.

≈ marks a conversion by molar mass, not a printed value. Some results are limits rather than exact numbers.

For the compound `C/C(=N\O)c1ccc(NC(=O)C(C)N2CCN(c3cc4c(cc3F)c(=O)c(C(=O)O)cn4C3CC3)CC2)cc1` (centres undefined), the MIC in [1] is 0.38 µg/mL (≈ 0.71 µM); in [2] it was 0.2 µg/mL (≈ 0.373 µM).

For the compound `O=C(CN1CCN(c2cc3c(cc2F)c(=O)c(C(=O)O)cn3C2CC2)CC1)N/N=C/C=C/c1c(F)cccc1F`, the Ratio result in series [3] is recorded as “>=4”. The MIC in [4] was ≤ 0.125 µg/mL.

As to `CCOP(=O)(OCC)C(Nc1ncc(-c2cc3ccccc3oc2=O)s1)c1cc2cccc(C)c2[nH]c1=O` (centres undefined), the MIC in series [5], in series [6], in series [7], in series [8], in [9] and in [10] was 0.25 µg/mL (≈ 0.453 µM) throughout. Besides, the MIC in series [11] and in series [12] was 0.25 µg/mL (≈ 0.453 µM) in each case.

For the compound `CCOP(=O)(OCC)C(Nc1ncc(-c2cc3ccccc3oc2=O)s1)c1cc2ccccc2[nH]c1=O` (centres undefined), the MIC in series [6], in series [13], in [14] and in [12] was 0.25 µg/mL (≈ 0.465 µM) each time.

In the case of `CCCCCc1nc2ccccc2c(=O)n1NC(=O)c1c(O)c2ccccc2n(CC)c1=O`, the MIC in [15], in [16], in [17], in series [18], in series [20] and in series [21] was 4 µg/mL (≈ 8.96 µM) each time. The MIC in series [22], in [24], in series [25], in series [26] and in series [27] was 4 µg/mL (≈ 8.96 µM) throughout. Moreover, the figures for the half-life in [19] and in [23] were > 373 min and 24.5 min, respectively.

`O=C(/C=C/c1cccc(Cl)c1)c1ccc(NC(=O)N2CCN(c3cc4c(cc3F)c(=O)c(C(=O)O)cn4C3CC3)CC2)cc1`: the Ratio in series [28] stood at 54. Moreover, the MIC in series [29], in series [30] and in series [31] was 0.06 µg/mL (≈ 0.0976 µM) each time.

For the compound `O=C(NCCCCCC(=O)N1CCN(c2cc3c(cc2F)c(=O)c(C(=O)O)cn3C2CC2)CC1)c1cc(O)c(O)c(C(=O)N[C@H]2COC(=O)[C@@H](NC(=O)c3cccc(O)c3O)COC(=O)[C@@H](NC(=O)c3cccc(O)c3O)COC2=O)c1`, the MIC in [32] and in [33] was 0.1 µg/mL (≈ 0.0877 µM) each time.

For the compound `COc1cccc2ccc(C(=O)N3CCN(c4cc5c(cc4F)c(=O)c(C(=O)O)cn5C4CC4)CC3)nc12`, in series [34], the MIC worked out at 0.2 µg/mL (≈ 0.387 µM). Further, the Ratio in [35] is on record as 2.

For the compound `O=C(O)c1cn(C2CC2)c2cc(N3CCN(Cc4nc5ccccc5c(=O)[nH]4)CC3)c(F)cc2c1=O`, the results for the MIC in series [36] and in [37] were 0.25 µg/mL (≈ 0.511 µM) and 0.031 µg/mL (≈ 0.0633 µM), respectively.

The MIC is the lowest concentration that inhibits growth of the organism. As usually defined, the half-life is how long it takes for the measured level to halve.
